Laboratory results reported in patent US20180148687A1 (priority 2015, published 2018).
Where two headings read alike, the source gives them in different places.

Experiments:
[1] = biological target: T1, P2X3 receptors (Homo sapiens, UniProt P56373); format: cell-based
T1 sequence (P56373 1-397): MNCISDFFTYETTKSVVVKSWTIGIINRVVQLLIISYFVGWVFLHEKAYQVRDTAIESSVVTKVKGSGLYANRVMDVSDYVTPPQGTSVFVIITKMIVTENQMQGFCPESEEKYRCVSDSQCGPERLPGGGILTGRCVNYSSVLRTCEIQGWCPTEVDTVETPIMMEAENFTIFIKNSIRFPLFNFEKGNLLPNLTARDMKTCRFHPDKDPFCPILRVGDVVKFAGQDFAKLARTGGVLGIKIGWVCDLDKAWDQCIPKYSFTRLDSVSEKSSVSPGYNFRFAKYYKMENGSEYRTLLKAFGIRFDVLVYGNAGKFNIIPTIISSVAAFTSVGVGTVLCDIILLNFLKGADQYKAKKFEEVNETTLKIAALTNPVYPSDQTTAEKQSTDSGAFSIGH
Protocol: (§1) Differentiated cells at 1-2 weeks were loaded with Fluo-4-AM fluorescence dye (Invitrogen, Calif.) for 1 hr incubation followed by 45 mins period for de-esterification. Cells were washed and incubated in Hanks' balanced salt solution (HBSS), supplemented with 25 mM HEPES buffer, 5.5 mM Glucose. Calcium flux was monitored using an Olympus IX81 inverted epi-fluorescence microscope (Olympus, Markham, ON) coupled to a xenon arc lamp (EXFO, Quebec, QC). Indicated agonists, α,β-methylene-ATP or capsaicin, were diluted in the aforementioned solution and added to the well to give the final stimulation concentration (30 μM α,β-methylene-ATP, 1 μM capsaicin) using a dropping pipette and aspirator system. Fluorescence images were collected using an EMCCD camera (Photometrics, Tucson, Ark.) every 2 s through a GFP filter cube (Semrock, Rochester, N.Y.). In a subset of wells, ionomycin was added as a second stimulation for the dye loading control. […] Off-line analysis of the intensity pattern of Fluo-4 signal was performed in ImageJ (NIH, Bethesda, Md.).

[2] = biological target: T2, TRPV1 vanilloid receptor (Homo sapiens, UniProt Q8NER1); experiment: Calcium imaging (Fluo-4) of BD-iNPC derived sensory neurons, capsaicin response; format: cell-based; details: 1 μM
T2 construct: endogenous in cells; host or cells: nociceptive sensory neurons differentiated from human blood derived iNPCs
T2 sequence (Q8NER1 whole entry): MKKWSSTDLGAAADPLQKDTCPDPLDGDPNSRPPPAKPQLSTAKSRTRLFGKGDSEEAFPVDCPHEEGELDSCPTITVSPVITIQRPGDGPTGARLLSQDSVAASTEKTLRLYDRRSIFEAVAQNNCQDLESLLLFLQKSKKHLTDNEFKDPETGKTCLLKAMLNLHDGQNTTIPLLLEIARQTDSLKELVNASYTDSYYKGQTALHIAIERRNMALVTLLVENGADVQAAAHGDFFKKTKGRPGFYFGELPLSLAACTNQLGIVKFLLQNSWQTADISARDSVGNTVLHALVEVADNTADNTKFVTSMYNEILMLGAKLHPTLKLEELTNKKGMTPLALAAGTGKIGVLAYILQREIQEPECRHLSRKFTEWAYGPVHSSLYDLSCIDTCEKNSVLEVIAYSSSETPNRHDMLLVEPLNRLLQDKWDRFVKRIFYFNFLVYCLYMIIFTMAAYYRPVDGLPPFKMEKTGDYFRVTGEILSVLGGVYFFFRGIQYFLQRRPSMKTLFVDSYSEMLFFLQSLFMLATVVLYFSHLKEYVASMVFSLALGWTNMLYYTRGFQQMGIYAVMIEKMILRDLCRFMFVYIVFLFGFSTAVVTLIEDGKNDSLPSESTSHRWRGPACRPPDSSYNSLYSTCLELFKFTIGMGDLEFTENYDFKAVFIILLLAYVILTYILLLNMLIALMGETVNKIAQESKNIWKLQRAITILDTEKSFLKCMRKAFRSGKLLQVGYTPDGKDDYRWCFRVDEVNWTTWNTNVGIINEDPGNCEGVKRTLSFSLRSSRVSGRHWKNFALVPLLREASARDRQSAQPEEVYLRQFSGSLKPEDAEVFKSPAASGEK
Protocol: as §1

[3] = system: voltage-activated sodium channels; format: cell-based, human
[4] = system: BD-iNPC derived sensory neurons; experiment: In vitro chemotherapy induced neuropathy model: neurite length and cell count; format: cell-based, human; details: 48 hours after treatment
Source text: This miniaturized and automated approach illustrates the potential utility of these converted cells as an in vitro model of human axonopathy for drug-discovery and form the basis to expand to other PNS and CNS disorders.

## Nc1ncnc2c1ncn2[C@@H]1O[C@H](COP(=O)(O)CP(=O)(O)OP(=O)(O)O)[C@@H](O)[C@H]1O [α,β-methylene-ATP]
[1]; 30 μM
  calcium transients in BD-iNPC derived neurons: could evoke calcium transients
[1]; 30 μM, continued culture to day 14
  calcium flux response: robust response
[1]; 30 μM, neurons at day 7 post-induction
  calcium flux response: minimal response

## COc1cc(CNC(=O)CCCC/C=C/C(C)C)ccc1O [capsaicin]
[2]
  calcium transients in BD-iNPC derived neurons: could evoke calcium transients

## O=C(O)c1cc(C(=O)O)c(C(=O)N(Cc2cccc(Oc3ccccc3)c2)[C@H]2CCCc3ccccc32)cc1C(=O)O [A-317491]
[1]; antagonist added 15 min before calcium imaging, 30 μM α,β-methylene-ATP stimulation
  calcium-response to α,β-methylene ATP: significantly decreased

## NC1=N[C@H](O)[C@H]2[C@H]3O[C@]4(O)O[C@@H]([C@@H](O)[C@@]2(N1)[C@@H]4O)[C@]3(O)CO [tetrodotoxin]
[3]
  rapidly activating and inactivating inward currents: blocked

## CC(=O)O[C@H]1C(=O)[C@@]2(C)[C@H]([C@H](OC(=O)c3ccccc3)[C@]3(O)C[C@H](OC(=O)[C@H](O)[C@@H](NC(=O)c4ccccc4)c4ccccc4)C(C)=C1C3(C)C)[C@]1(OC(C)=O)CO[C@@H]1C[C@@H]2O [Taxol]
[4]
  neurite length of sensory neurons: dose-dependent reduction in length
  viability (cell count) of sensory neurons: without concomitant loss of viability
